Several values for one entry are separate records, joined by “and”; a condition that tells them apart may be missing. Equal entries are not always repeated. Entries after “also recorded” stand apart in the source; their conditions may differ.

The LD50 is the dose expected to kill half of the subjects tested.

On the set-up of series [1]: species or system Male Sprague-Dawley rats. Particulars: rat, in vivo.
Series [2] can be described thus: Morris Swimming Maze in AF64A- and CSF-injected rats. It counts as in vivo, male Sprague Dawley rats. The note with it: AF102B 1 mg./kg., ip, physostigmine 0.1 mg./kg. As for the experimental part:
38 male Sprague Dawley rats (raised by Charles River) 5-6 months old with an average weight of 500 g. were used. The rats were housed in groups of 5 and were given free access to food and water. Testing was carried out in a round white metal tub 1.4 m. diameter and 0.4 m. deep. The tub was filled with water, made opaque by milk powder to the level of 18 cm. A platform of 12 cm. diameter and at a height of 16 cm. was placed in the tub 2 cm. below water level. The platform was covered with gauze to prevent the animal from slipping back into the water after reaching the platform.
Prior to testing, the rat was placed on the platform for 120 secs., placed gently into the water, facing the wall of the pool, at one of four starting locations (north, south, east or west) around the pool's perimeter. Within each block of four trials, each rat was started at each of the four starting locations, with the sequence of starting locations randomly selected. Testing was carried out on 2 consecutive days with each rat submitted daily to eight trials. During trials 1-12 the platform was located in the center of the south-east quadrant and during trials 13-16 the platform was transferred to the center of the north-west quadrant. If in a particular trial the rat found the platform, it was permitted to remain on it for 60 secs. before starting the next trial. […] The latency to find the platform was measured.
For drug testing, rats were injected with AF64A or CSF (3 nmole/2 ul/side) as described in Experiment 2, above. The rats were subjected first to a step-through learning procedure (see Experiment 1, above) and were 3-3.5 months after injection when tested in the water maze. The rats were divided into 4 groups; 18 CSF-injected rats were treated either with physostigmine (0.1 mg./kg. ip) (10 rats) or with saline (8 rats). 20 AF64A-injected rats were divided similarly. The rats were injected with physostigmine immediately before testing on each day.
Forty male Sprague-Dawley rats (obtained from Charles River Breeding Laboratories U.K.), 5-6 months old, weighing 450-580 g. during the experiment served as subjects. Rats were housed in groups of 5 and were given free access to food and water. 2.5-3.5 months before behavioral testing, rats were injected with AF64A (3 nmole/2 ul/side) (20 rats-group 1) or CSF (20 rats-group 2) as described in the surgery procedure.
Each of the injected groups was randomly subdivided into two equal size treatment groups.

The nature of series [3]: LD50 of physostigmine (relative toxicity in rats). Particulars: rat, in vivo, ip.

For the compound `CNC(=O)Oc1ccc2c(c1)[C@]1(C)CCN(C)[C@@H]1N2C` [physostigmine, reference compound], in series [1], the Initial-test latency is 25.50 ± 5.68 s and 29.70 ± 7.93 s; the “reversal of AF64A-induced memory impairments in passive avoidance” value is reported as “could be reversed”. In addition, in series [1] (ip), the Retention-test latency is 458.90 ± 63.33 s and 576.10 ± 22.69 s; the Therapeutic index was 5-17 and 10-17; the “retention of passive avoidance (statistics)” value is “significantly longer, F(1,36)=5.91, p=0.05; also recorded: significantly improved; also recorded: the retention of the CSF-injected group was not affected”. Besides, in series [2], the “effect in Morris Swimming Maze” value was “negative effect; also recorded: inhibited the decrease of the escape-latency curve”. Besides, the “effect in Morris Swimming Maze” value in series [2] (listed as Physostigmine) was “worsens; also recorded: apparently impaired the performance of both AF64A and CSF-injected groups”. In series [3], this compound displayed an LD50 of 1 to 2 mg/kg.
